In one data set the target is human GPR40 receptor (Homo sapiens (Human), UniProt O14842). Put plainly: IP1 accumulation measurements using the IPOne assay system. Type of data set: cell-based. Conditions: 1321N1 cells stably expressing human GPR40 receptor, 1 h stimulation. As for the experimental part: IP1 accumulation measurements using the IPOne assay system—1321N1 cells stably expressing human GPR40 receptor (Euroscreen, Belgium) are seeded 24 h before the assay in white 384-well plates in culture medium containing 10% FCS, 1% Na-Pyruvate and 400 μg/mL G418. IP1 is assayed according to the manufacturer's description (Cisbio Bioassays, France). In brief, the assay is started by substitution of the culture medium by stimulation buffer (Hepes 10 mM, CaCl2 1 mM, MgCl2 0.5 mM, KCl 4.2 mM, NaCl 146 mM, glucose 5.5 mM and LiCl 50 mM, pH 7.4). Cells are stimulated for 1 h at 37° C., 5% CO2 by addition of the compounds that are diluted in stimulation buffer containing LiCl. Assays are stopped by adding HTRF-conjugates (IP1-d2 and Anti-IP1 cryptate Tb) and lysis buffer, provided by the manufacturer. After an incubation time of 1 h at room temperature plates are measured using an EnVision™, Perkin Elmer. The obtained fluorescence ratios at 665/615 […] are then used to calculate the pEC50 values using Assay Explorer 3.3 Software (Accelrys, Inc.) by interpolation using an IP1 reference curve and subsequent sigmoidal curve fitting allowing for a variable hill slope.

Data set [1] can be described thus: Chemical stability (degradation kinetics) in acidic aqueous media, HPLC recovery rate. Type of data set: physicochemical. The note with it: pH value of ca. 1.2, acetonitrile/0.1 M aqueous HCl (2:3), 37° C. On the procedure:
Degradation kinetics is used to simulate chemical stability of compounds in the acidic part of the gastro intestinal tract.
The chemical stability of the compounds of the invention at pH value of ca. 1.2 is determined as follows:
Compound is dissolved in an HPLC vial either in a mixture of acetonitrile/0.1 M aqueous HCl (2:3; pH ca. 1.2) or in a mixture of acetonitrile/McIlvaine buffer pH 7.4 (2:3) to get a concentration of approximately 0.25 mg/ml. The vial was then transferred into an HPLC autosampler system and maintained at a temperature of 37° C. A first sample is taken and injected immediately into a standard HPLC system with a UV DAD detector. Further samples are injected after 2, 4, 6, 8 and 10 hours. Degradation of the compound is measured by determining the recovery rate of compound [%] for each injection using an HPLC standard gradient method. Therefore the peak area of the main peak for the first injection (AUt0) is determined and set as 100%. Peak area of the main peak is determined also for the further injections (AUtn, n=2, 4, 6, 8, 10) and expressed as fraction of […] [%].

Each structure is given as a SMILES string. Where only a bound is given, the exact number is not on record here.

human GPR40 receptor, sequence (O14842 whole entry): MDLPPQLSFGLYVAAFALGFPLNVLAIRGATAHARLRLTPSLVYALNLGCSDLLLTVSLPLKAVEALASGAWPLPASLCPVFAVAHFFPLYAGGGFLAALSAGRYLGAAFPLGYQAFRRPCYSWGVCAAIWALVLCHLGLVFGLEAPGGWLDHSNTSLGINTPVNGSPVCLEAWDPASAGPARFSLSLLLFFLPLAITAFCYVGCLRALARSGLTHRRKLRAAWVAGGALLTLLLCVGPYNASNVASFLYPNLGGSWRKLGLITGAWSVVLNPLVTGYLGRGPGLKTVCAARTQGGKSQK

Broadly, the EC50 is the concentration at which the effect is half-maximal. A high value points to lower potency in that assay. For the molecule `CC(C)(O)CCOc1ccc(Oc2ccc(F)c3c2CC[C@H]3Oc2ccc3c(c2)OC[C@H]3CC(=O)O)cc1` [Example 2, [(S)-6-{(R)-7-Fluoro-4-[4-(3-hydroxy-3-methyl-butoxy)-phenoxy]-indan-1-yloxy}-2,3-dihydro-benzofuran-3-yl]-acetic acid], the midpoint of the response on human GPR40 receptor, the EC50, lay at 5 nM. In addition, the “Recovery rate after 2 h” value in data set [1] is recorded as over 98%.
On to `CC(C)(O)COc1ccc(Oc2ccc(F)c3c2CC[C@H]3Oc2ccc3c(c2)OC[C@H]3CC(=O)O)cc1` [Example 3, [(S)-6-{(R)-7-Fluoro-4-[4-(2-hydroxy-2-methyl-propoxy)-phenoxy]-indan-1-yloxy}-2,3-dihydro-benzofuran-3-yl]-acetic acid], for which, on human GPR40 receptor, the EC50 is 13 nM. The “Recovery rate after 2 h” value in data set [1] came out at 97.5%.
Take `O=C(O)C[C@@H]1COc2cc(OC3CCc4ccccc43)ccc21` (some centres unmarked) [XX, reference compound]: the “Recovery rate after 2 h” value in data set [1] is given as under 5%.
On to `CC(=O)Nc1cccc(Oc2ccc(F)c3c2CC[C@H]3Oc2ccc3c(c2)OC[C@H]3CC(=O)O)c1` [Example 6, {(S)-6-[(R)-4-(3-Acetylamino-phenoxy)-7-fluoro-indan-1-yloxy]-2,3-dihydro-benzofuran-3-yl}-acetic acid], for which, on human GPR40 receptor, the EC50 worked out at 8 nM. Besides, the “Recovery rate after 2 h” value in data set [1] was over 98%.
The corresponding values for `O=C(O)C[C@@H]1COc2cc(O[C@@H]3CCc4c(Oc5ccc6c(c5)CCO6)ccc(F)c43)ccc21` [Example 11, {(S)-6-[(R)-4-(2,3-Dihydro-benzofuran-5-yloxy)-7-fluoro-indan-1-yloxy]-2,3-dihydro-benzofuran-3-yl}-acetic acid] are 6 nM and 96.5%.
In the case of `CC(C)c1cccc2c1CC[C@H]2Oc1ccc2c(c1)OC[C@H]2CC(=O)O` [XXI, reference compound], in data set [1], the “Recovery rate after 2 h” value is under 5%.
The molecule `COCCOc1ccc(Oc2ccc(F)c3c2CC[C@H]3Oc2ccc3c(c2)OC[C@H]3CC(=O)O)cc1` [Example 1, [(S)-6-{(R)-7-Fluoro-4-[4-(2-methoxy-ethoxy)-phenoxy]-indan-1-yloxy}-2,3-dihydro-benzofuran-3-yl]-acetic acid] came in with an EC50 on human GPR40 receptor of 7 nM. For the same molecule, the “Recovery rate after 2 h” value in data set [1] is recorded as 97.5%.
The molecule `CC(C)(O)CCOc1cc(F)c(Oc2ccc(F)c3c2CC[C@H]3Oc2ccc3c(c2)OC[C@H]3CC(=O)O)cc1F` [Example 34, ((S)-6-{(R)-4-[2,5-Difluoro-4-(3-hydroxy-3-methylbutoxy)phenoxy]-7-fluoro-indan-1-yloxy}-2,3-dihydrobenzofuran-3-yl)-acetic acid] showed an EC50 at human GPR40 receptor of 6 nM.
On to `O=C(O)C[C@@H]1COc2cc(O[C@@H]3CCc4c(Oc5ccc(C(=O)N6CCCC6)cc5)ccc(F)c43)ccc21` [Example 9, [(S)-6-{(R)-7-Fluoro-4-[4-(pyrrolidine-1-carbonyl)-phenoxy]-indan-1-yloxy}-2,3-dihydro-benzofuran-3-yl]-acetic acid], for which the EC50 on human GPR40 receptor was 18 nM. Moreover, the “Recovery rate after 2 h” value in data set [1] is reported as over 99%.
The corresponding values for `CCNC(=O)c1ccc(Oc2ccc(F)c3c2CC[C@H]3Oc2ccc3c(c2)OC[C@H]3CC(=O)O)cc1` [Example 12, {(S)-6-[(R)-4-(4-Ethylcarbamoyl-phenoxy)-7-fluoro-indan-1-yloxy]-2,3-dihydro-benzofuran-3-yl}-acetic acid] are 18 nM and over 99%.
The molecule `CC(C)(O)CCc1ccc(Oc2ccc(F)c3c2CC[C@H]3Oc2ccc3c(c2)OC[C@H]3CC(=O)O)c(C#N)c1` [Example 62, ((S)-6-{(R)-4-[2-Cyano-4-(3-hydroxy-3-methylbutyl)phenoxy]-7-fluoro-indan-1-yloxy}-2,3-dihydrobenzofuran-3-yl)-acetic acid] yielded an EC50 at human GPR40 receptor of 12 nM.
Take `CC(C)(O)CCOc1ccc(F)c(Oc2ccc(F)c3c2CC[C@H]3Oc2ccc3c(c2)OC[C@H]3CC(=O)O)c1` [Example 45, ((S)-6-{(R)-7-Fluoro-4-[2-fluoro-5-(3-hydroxy-3-methylbutoxy)phenoxy]-indan-1-yloxy}-2,3-dihydrobenzofuran-3-yl)-acetic acid]: the EC50 on human GPR40 receptor turned out to be 29 nM.
`O=C(O)C[C@@H]1COc2cc(O[C@@H]3CCc4c(Oc5ccc(-c6nccs6)cc5)ccc(F)c43)ccc21` [Example 21, {(S)-6-[(R)-7-Fluoro-4-(4-thiazol-2-yl-phenoxy)-indan-1-yloxy]-2,3-dihydro-benzofuran-3-yl}-acetic acid] came in with a half-maximal effective concentration (EC50) on human GPR40 receptor of 6 nM.

These data come from patent US9597310B2, “Indanyloxydihydrobenzofuranylacetic acids” (Boehringer Ingelheim International GmbH, priority 2012, dated 2017).
